Measurements from US6716829B2, “Aldosterone antagonist and cyclooxygenase-2 inhibitor combination therapy to prevent or treat inflammation-related cardiovascular disorders” (Pharmacia Corporation, priority 2000, dated 2004).
Where “and” joins values, the source holds several entries; their conditions need not be identical. Identical values can stand only once. Entries after “also recorded” stand apart in the source; their conditions may differ.

Tested on: aldosterone + salt treated uninephrectomized rats
Experiment: Assay C, further aldosterone infusion study: radiotelemetrized arterial (systolic) blood pressure
Assay type: in vivo, Male Sprague-Dawley rats
Details: for Systolic Blood Pressure (mmHg): mean ± SEM of values every 5 min over 24-hour period
Experimental: Assay C: Further In Vivo Aldosterone Infusion Study
The procedure of Assay B was expanded upon in a further study. […] Myocardial tissue from animals in each treatment group was examined after 7, 14, or 30 days of treatment.
Male Sprague-Dawley rats, weighing 230 to 250 g, (Harlan Sprague-Dawley Industries, Indianapolis, IN) were housed in a room 12-hours light/12-hours dark daily cycle at an ambient temperature of 22±1° C. (n=96). Animals were allowed one week to adjust after arrival and had free access to TEKLAD 22/5 rodent diet (Harlan TEKLAD, Madison, Wis.) and tap water until the initiation of the experiment.
Potassium chloride supplementation was added to the saline solution in order to prevent the potential hypokalemia associated with aldosterone excess.
At the time of the surgery, an Alzet 2002 osmotic minipump (Alza Corp., Palo Alto, Calif.) containing either vehicle (9% ethanol/87% propylene glycol/4% dH2O) or 1.0 mg/mL d-aldosterone (Sigma Chemical, St. Louis, Mo.) was inserted subcutaneously at the nape of the neck. Aldosterone was administered at a dose of 0.75 µg/hour. […] Animals were sacrificed from each group (n=8-13) after 7, 14, or 30 days of treatment.
Animals to be sacrificed after 7 or 14 days of treatment were uninephrectomized and implanted with an Alzet minipump. Animals treated for 30 days were uninephrectomized, fitted for Alzet minipumps, and implanted with radio telemetry units (model #TA11PA-C40, Data Sciences Inc., St. Paul, Minn.) according to the following procedure. Animals were anesthetized with 5% isoflurane (SOLVAY Animal Health Inc., Mendota Heights, Minn.), which was delivered in O2 using a VMS anesthesia instrument (Matrix Medical, Inc., Orchard Park, N.Y.). Anesthesia was maintained with 1-2% isoflurane throughout the surgical procedure. The surgery site was clipped, scrubbed with nolvasan, and sprayed with betadine. A rostral-caudal incision was made through the skin from the base of the rib cage to the pubic region using a #11 scalpel blade. A second incision was made through the muscles of the abdominal wall to expose the peritoneal cavity. The […], renal artery and vein of the left kidney were isolated, tied off with 4-0 silk, and the kidney excised and discarded. Organs were carefully displaced with tissue retractors in order to expose the abdominal aorta. A 1.5 cm segment just rostral to the bifurcation of the abdominal aorta into the iliac arteries was cleared of excessive connective tissue and 4-0 silk was used to make an anchor adjacent to the aorta. A microvascular clip was then placed at both ends of the cleaned region to stop excessive blood flow. Using a bent, 21 gauge needle, the abdominal aorta was penetrated. The cannula of the radio telemetry unit was inserted and stabilized in the aorta using the 4-0 silk anchor. Organs were repositioned and the telemetry unit was placed over the organs. Using a non-interrupted suture pattern with 4-0 silk, the abdominal wall was closed, and the skin was subsequently closed using a 4-0 silk in an interrupted suture pattern. Animals were injected around the sutures with 100 μL of the anesthetic Marcaine HCl (Sanofi Winthrop Pharmaceuticals, New York, N.Y.) and given an injection (i.m.) of the antibiotic Mandol (Eli Lilly & Co., Indianapolis, Ind.). Post-operative care included monitoring the animals on a heating pad during recovery from anesthesia until sternal recumbency was reestablished. Animals were monitored daily for signs of distress and infection at the surgical site. Animals displaying continued discomfort after surgery were treated with 0.1-0.5 mg/kg, s.c. Buphrenorphine (Rickett & Colman Pharmaceuticals, Inc. Richmond, Va.). Animals were then placed on tap water and TEKLAD 22/5 rodent diet (Harlan TEKLAD, Madison, Wis.).
Radiotelemetrized arterial blood pressure was calculated with the […]

[1] = aldosterone + salt, uninephrectomized rats, up to 30 days, eplerenone 100 mg/kg/day

| SMILES | Systolic Blood Pressure (mmHg) (Day 3) | Systolic Blood Pressure (mmHg) (Day 4) | Systolic Blood Pressure (mmHg) (Day 5) | Systolic Blood Pressure (mmHg) (Day 6) | Systolic Blood Pressure (mmHg) (Day 7) | Systolic Blood Pressure (mmHg) (Day 8) | Systolic Blood Pressure (mmHg) (Day 9) | Systolic Blood Pressure (mmHg) (Day 10) | Systolic Blood Pressure (mmHg) (Day 11) | Systolic Blood Pressure (mmHg) (Day 12) | Systolic Blood Pressure (mmHg) (Day 13) | Systolic Blood Pressure (mmHg) (Day 14) | Systolic Blood Pressure (mmHg) (Day 15) | Systolic Blood Pressure (mmHg) (Day 16) | Systolic Blood Pressure (mmHg) (Day 17) | Systolic Blood Pressure (mmHg) (Day 18) | Systolic Blood Pressure (mmHg) (Day 19) | Systolic Blood Pressure (mmHg) (Day 20) | Systolic Blood Pressure (mmHg) (Day 21) | Systolic Blood Pressure (mmHg) (Day 22) | other results |
| --- | --- | --- | --- | --- | --- | --- | --- | --- | --- | --- | --- | --- | --- | --- | --- | --- | --- | --- | --- | --- | --- |
| C[C@]12CCC(=O)C=C1CC[C@@H]1[C@@H]2[C@@H](O)C[C@]2(C=O)[C@@H](C(=O)CO)CC[C@@H]12 [Aldosterone] | 132 ± 6 | 133 ± 4 | 137 ± 4 | 148 ± 5 | 155 ± 5 | 156 ± 4 | 164 ± 5 | 168 ± 6 | 171 ± 6 | 178 ± 6 | 182 ± 6 | 182 ± 6 | 181 ± 5 | 187 ± 6 | 195 ± 7 | 196 ± 6 | 200 ± 6 | 203 ± 5 | 208 ± 4 | 209 ± 4 | Systolic Blood Pressure (Day 3, individual rats, 30-day protocol, listed as Aldosterone + salt): 116 mmHg and 152 mmHg and 115 mmHg and 127 mmHg and 143 mmHg and 122 mmHg and 124 mmHg and 159 mmHg; Systolic Blood Pressure (Day 4, individual rats, 30-day protocol, listed as Aldosterone + salt): 120 mmHg and 149 mmHg and 122 mmHg and 134 mmHg and 129 mmHg and 135 mmHg and 125 mmHg and 152 mmHg; Systolic Blood Pressure (Day 5, individual rats, 30-day protocol, listed as Aldosterone + salt): 126 mmHg and 158 mmHg and 124 mmHg and 142 mmHg and 129 mmHg and 137 mmHg and 128 mmHg and 151 mmHg; Systolic Blood Pressure (Day 6, individual rats, 30-day protocol, listed as Aldosterone + salt): 132 mmHg and 170 mmHg and 136 mmHg and 157 mmHg and 144 mmHg and 149 mmHg and 135 mmHg and 158 mmHg; Systolic Blood Pressure (Day 7, individual rats, 30-day protocol, listed as Aldosterone + salt): 140 mmHg and 179 mmHg and 139 mmHg and 165 mmHg (2×) and 153 mmHg and 154 mmHg and 145 mmHg; Systolic Blood Pressure (Day 8, individual rats, 30-day protocol, listed as Aldosterone + salt): 145 mmHg and 182 mmHg and 143 mmHg and 160 mmHg and 158 mmHg and 154 mmHg and 146 mmHg and 163 mmHg; Systolic Blood Pressure (Day 9, individual rats, 30-day protocol, listed as Aldosterone + salt): 150 mmHg and 191 mmHg and 148 mmHg and 172 mmHg (2×) and 159 mmHg and 151 mmHg and 169 mmHg; Systolic Blood Pressure (Day 10, individual rats, 30-day protocol, listed as Aldosterone + salt): 156 mmHg and 196 mmHg and 149 mmHg and 175 mmHg (2×) and 165 mmHg and 151 mmHg and 172 mmHg; Systolic Blood Pressure (Day 11, individual rats, 30-day protocol, listed as Aldosterone + salt): 154 mmHg and 201 mmHg and 155 mmHg (2×) and 178 mmHg and 181 mmHg and 163 mmHg and 175 mmHg; Systolic Blood Pressure (Day 12, individual rats, 30-day protocol, listed as Aldosterone + salt): 159 mmHg and 207 mmHg and 161 mmHg and 190 mmHg (2×) and 186 mmHg and 170 mmHg and 163 mmHg; Systolic Blood Pressure (Day 13, individual rats, 30-day protocol, listed as Aldosterone + salt): 161 mmHg and 210 mmHg and 166 mmHg (2×) and 196 mmHg and 191 mmHg and 172 mmHg and 194 mmHg; Systolic Blood Pressure (Day 14, individual rats, 30-day protocol, listed as Aldosterone + salt): 164 mmHg and 208 mmHg and 170 mmHg and 204 mmHg and 192 mmHg (2×) and 181 mmHg and 159 mmHg and 172 mmHg; Systolic Blood Pressure (Day 15, individual rats, 30-day protocol, listed as Aldosterone + salt): 171 mmHg; Systolic Blood Pressure (mmHg) (Day 23): 208 ± 4 mmHg; Systolic Blood Pressure (mmHg) (Day 24): 210 ± 3 mmHg; Systolic Blood Pressure (mmHg) (Day 25): 210 ± 4 mmHg; Systolic Blood Pressure (mmHg) (Day 26): 210 ± 3 mmHg; Systolic Blood Pressure [1]: induced severe hypertension; also recorded: progressive increase in blood pressure with time |
| COC(=O)[C@@H]1CC2=CC(=O)CC[C@]2(C)[C@@]23O[C@@H]2C[C@@]2(C)[C@@H](CC[C@@]24CCC(=O)O4)[C@H]13 [Eplerenone] | 126 ± 1 | 130 ± 2 | 132 ± 2 | 139 ± 3 | 143 ± 3 | 142 ± 3 | 142 ± 3 | 142 ± 2 | 143 ± 3 | 145 ± 3 | 147 ± 3 | 150 ± 4 | 148 ± 4 | 150 ± 4 | 154 ± 5 | 157 ± 5 | 160 ± 5 | 160 ± 5 | 165 ± 6 | 167 ± 6 | Systolic Blood Pressure (Day 3, individual rats, 30-day protocol, listed as Eplerenone + aldosterone + salt): 123 mmHg and 126 mmHg (2×) and 130 mmHg (2×) and 128 mmHg and 119 mmHg and 125 mmHg (2×); Systolic Blood Pressure (Day 4, individual rats, 30-day protocol, listed as Eplerenone + aldosterone + salt): 130 mmHg (2×) and 128 mmHg (2×) and 131 mmHg and 139 mmHg and 122 mmHg and 126 mmHg and 134 mmHg; Systolic Blood Pressure (Day 5, individual rats, 30-day protocol, listed as Eplerenone + aldosterone + salt): 132 mmHg (2×) and 134 mmHg and 143 mmHg and 123 mmHg and 127 mmHg (2×) and 133 mmHg and 142 mmHg; Systolic Blood Pressure (Day 6, individual rats, 30-day protocol, listed as Eplerenone + aldosterone + salt): 133 mmHg (2×) and 142 mmHg and 136 mmHg and 152 mmHg and 126 mmHg and 137 mmHg and 140 mmHg and 150 mmHg; Systolic Blood Pressure (Day 7, individual rats, 30-day protocol, listed as Eplerenone + aldosterone + salt): 140 mmHg (3×) and 142 mmHg and 143 mmHg and 156 mmHg (2×) and 132 mmHg and 141 mmHg; Systolic Blood Pressure (Day 8, individual rats, 30-day protocol, listed as Eplerenone + aldosterone + salt): 142 mmHg and 146 mmHg and 141 mmHg and 156 mmHg and 131 mmHg and 138 mmHg (2×) and 139 mmHg and 152 mmHg; Systolic Blood Pressure (Day 9, individual rats, 30-day protocol, listed as Eplerenone + aldosterone + salt): 142 mmHg and 146 mmHg and 139 mmHg and 154 mmHg and 130 mmHg and 133 mmHg and 137 mmHg and 141 mmHg and 151 mmHg; Systolic Blood Pressure (Day 10, individual rats, 30-day protocol, listed as Eplerenone + aldosterone + salt): 143 mmHg (2×) and 138 mmHg and 158 mmHg and 134 mmHg and 136 mmHg and 139 mmHg and 142 mmHg and 149 mmHg; Systolic Blood Pressure (Day 11, individual rats, 30-day protocol, listed as Eplerenone + aldosterone + salt): 145 mmHg (2×) and 139 mmHg and 138 mmHg and 160 mmHg and 136 mmHg and 137 mmHg and 140 mmHg and 152 mmHg; Systolic Blood Pressure (Day 12, individual rats, 30-day protocol, listed as Eplerenone + aldosterone + salt): 147 mmHg and 140 mmHg (2×) and 139 mmHg (2×) and 165 mmHg and 137 mmHg and 148 mmHg and 154 mmHg; Systolic Blood Pressure (Day 13, individual rats, 30-day protocol, listed as Eplerenone + aldosterone + salt): 148 mmHg and 144 mmHg and 137 mmHg and 170 mmHg and 140 mmHg (3×) and 149 mmHg; Systolic Blood Pressure (mmHg) (Day 23): 172 ± 6 mmHg; Systolic Blood Pressure (mmHg) (Day 25): 176 ± 6 mmHg; Systolic Blood Pressure (mmHg) (Day 26): 180 ± 7 mmHg; Systolic Blood Pressure [1]: significantly reduced at days 8-30 |
